LC50 and LD50 data for seven compounds are collected here from ChEMBL document CHEMBL3046849, “Composition of essential oil of Chinese Chenopodium ambrosioides and insecticidal activity against maize weevil, Sitophilus zeamais” (2011).

Converted amounts (≈) assume the structure as drawn.

Holding throughout (assay type): functional
The test system of assay [1] is Sitophilus zeamais. Put plainly: Insecticidal activity against adult Sitophilus zeamais assessed as mortality measured daily for 1 week by fumigation assay. Particulars: 168 h.
Assay [2] deals with Sitophilus zeamais. Put plainly: Contact toxicity against adult Sitophilus zeamais assessed as mortality applied to dorsal thorax of insect measured daily for 1 week. Particulars: 168 h.
In assay [3] the test system is Sitophilus zeamais. Put plainly: Insecticidal activity against adult Sitophilus zeamais assessed as mortality after 24 hr by fumigation assay.

Broadly, the LC50 is the concentration that kills 50% of the test population. Usually LD50 stands for the dose expected to kill half of the subjects tested.

`CC(C)[C@@]12C=C[C@@](C)(CC1)OO2` [(Z)-ASCARIDOLE]: the LC50 in assay [1] worked out at 0.84 µg/mL (≈ 4.99 µM). In assay [2], the LD50 worked out at 0.86 mg/kg.
For the compound `CBr` [BROMOMETHANE], the LC50 in assay [3] was 0.67 µg/mL (≈ 7.06 µM).
On to `CC1=CC=C(C(C)C)CC1` [ALPHA-TERPINENE], for which the LC50 in assay [1] came to 5.46 µg/mL (≈ 40.1 µM). Further, in assay [2], the LD50 turned out to be 3.47 mg/kg.
Taken in the same sequence, the figures for `CC(C)[C@]12CC[C@@]3(C)O[C@H]3[C@H]1O2` [ISOASCARIDOLE] were 2.45 µg/mL (≈ 14.6 µM) and 2.16 mg/kg.
Take `Cc1ccc(C(C)C)cc1` [P-CYMENE]: the LC50 in assay [1] came out at 23.3 µg/mL (≈ 173 µM). For the same compound, the LD50 in assay [2] is over 23.2 mg/kg.
For `P` [PHOSPHINE], the LC50 in assay [3] is 0.006 µg/mL (≈ 0.176 µM).
Regarding `CC1=CC2C(CC1)C2(C)C` (configuration not stated) [2-CARENE], the LC50 in assay [1] stood at 14 µg/mL (≈ 103 µM). Moreover, the LD50 in assay [2] was found to be 3.55 mg/kg.
